# From article PMC4774911, “Biochemical Screening of Five Protein Kinases from Plasmodium falciparum against 14,000 Cell-Active Compounds” (PLoS ONE, 2016)
# Several values for one entry are separate records, joined by “and”; a condition that tells them apart may be missing. Equal values may be shown once.
# Experiments:
# [1] = target: AAK1 (Homo sapiens, UniProt Q2M2I8); experiment: Kinobead competition assay in K562 extract: AAK1
# Protocol: Kinobeads were prepared as described [25, 26]. […] Briefly, Kinobeads were washed and equilibrated in lysis buffer (50 mM Tris-Cl, pH 7.4, 0.4% Igepal-CA630, 1.5 mM MgCl2, 5% Glycerol, 150 mM NaCl, 25 mM NaF, 1 mM Na3VO4, 1 mM DTT, and 1 complete EDTA-free protease inhibitor tablet (Roche) per 25 ml). […] Digestion, labeling with TMT isobaric mass tags, peptide fractionation, and mass spectrometric analyses were performed essentially as described [27]. Criteria for protein quantification were: a minimum of 2 sequence assignments matching to unique peptides was required (FDR for quantified proteins <<0.1%), Mascot ion score > 15, signal to background ratio of the precursor ion > 4, signal to interference > 0.5 [28]. Reporter ion intensities were multiplied by ion accumulation time, yielding an area value proportional to the number of reporter ions present in the mass analyzer. Peptide fold changes were corrected for isotope purity as described and adjusted for interference caused by co-eluting nearly isobaric peaks as estimated by the signal-to-interference measure [29]. Protein quantification was achieved using a sum-based bootstrap algorithm [30]. Apparent dissociation constants were determined by taking into account the protein depletion by the beads as described [27].
# Kinobeads were incubated with K562 cell extract either in the presence of vehicle (DMSO) or TCAMS compound, respectively (20 μM-0.03 μM). Protein kinases captured by the beads (140–150 kinases per experiment) were quantified following tryptic digestion, isobaric peptide tagging, and LC-MS/MS analysis. Kinases were identified as potential targets by virtue of their reduced capture in the presence of excess TCAMS compounds. Apparent dissociation constants (Kd’s) were calculated from the extent to which capture of each kinase was reduced at each compound concentration.
# [2] = target: T1, TAOK2 (Homo sapiens, UniProt Q9UL54); experiment: biochemical; parameters: endogenous in cells; host or cells: K562 cell extract; species or system K562 (extract); replicate k of n = 2 (each experiment ID is one independent experiment; two experiment IDs per compound); settings: read-out: KDapp
# T1 sequence (Q9UL54 1-1235): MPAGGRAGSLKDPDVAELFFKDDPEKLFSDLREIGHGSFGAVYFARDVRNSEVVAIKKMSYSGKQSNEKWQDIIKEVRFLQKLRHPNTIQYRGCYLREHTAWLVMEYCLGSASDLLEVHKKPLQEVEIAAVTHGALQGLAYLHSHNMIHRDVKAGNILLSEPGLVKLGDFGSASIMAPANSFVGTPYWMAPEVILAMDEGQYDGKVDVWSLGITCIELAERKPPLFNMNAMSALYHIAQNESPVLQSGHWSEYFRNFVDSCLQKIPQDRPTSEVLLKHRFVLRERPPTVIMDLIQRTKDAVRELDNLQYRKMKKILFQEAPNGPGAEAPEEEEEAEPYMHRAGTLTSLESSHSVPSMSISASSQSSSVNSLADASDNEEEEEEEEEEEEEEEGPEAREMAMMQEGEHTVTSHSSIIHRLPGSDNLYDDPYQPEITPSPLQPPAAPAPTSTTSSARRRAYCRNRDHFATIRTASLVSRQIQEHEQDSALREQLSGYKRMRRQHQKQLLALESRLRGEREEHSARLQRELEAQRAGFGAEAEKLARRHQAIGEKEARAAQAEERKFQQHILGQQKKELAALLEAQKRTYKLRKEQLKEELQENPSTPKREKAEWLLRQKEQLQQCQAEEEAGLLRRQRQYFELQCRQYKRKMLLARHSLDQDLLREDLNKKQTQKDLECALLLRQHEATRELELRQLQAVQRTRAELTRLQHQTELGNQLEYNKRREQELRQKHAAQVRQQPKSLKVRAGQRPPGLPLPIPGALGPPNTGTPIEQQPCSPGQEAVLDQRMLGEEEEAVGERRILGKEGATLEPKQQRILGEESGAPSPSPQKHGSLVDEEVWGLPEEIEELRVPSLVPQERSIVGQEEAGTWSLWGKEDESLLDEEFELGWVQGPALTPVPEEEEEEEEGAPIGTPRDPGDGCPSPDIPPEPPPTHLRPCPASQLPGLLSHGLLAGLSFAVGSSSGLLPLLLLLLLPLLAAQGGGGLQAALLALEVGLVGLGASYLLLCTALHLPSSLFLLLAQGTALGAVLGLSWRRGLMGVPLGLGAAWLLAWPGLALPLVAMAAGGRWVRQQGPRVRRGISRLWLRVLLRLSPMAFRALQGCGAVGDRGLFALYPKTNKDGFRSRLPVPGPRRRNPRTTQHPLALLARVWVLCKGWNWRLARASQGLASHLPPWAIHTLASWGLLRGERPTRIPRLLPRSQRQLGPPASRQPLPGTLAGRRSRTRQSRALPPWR
# [3] = target: T2, NEK3 (Homo sapiens, UniProt P51956); experiment: biochemical; parameters: endogenous in cells; host or cells: K562 cell extract; species or system K562 (extract); replicate k of n = 2 (each experiment ID is one independent experiment; two experiment IDs per compound); settings: read-out: KDapp
# T2 sequence (P51956 1-506): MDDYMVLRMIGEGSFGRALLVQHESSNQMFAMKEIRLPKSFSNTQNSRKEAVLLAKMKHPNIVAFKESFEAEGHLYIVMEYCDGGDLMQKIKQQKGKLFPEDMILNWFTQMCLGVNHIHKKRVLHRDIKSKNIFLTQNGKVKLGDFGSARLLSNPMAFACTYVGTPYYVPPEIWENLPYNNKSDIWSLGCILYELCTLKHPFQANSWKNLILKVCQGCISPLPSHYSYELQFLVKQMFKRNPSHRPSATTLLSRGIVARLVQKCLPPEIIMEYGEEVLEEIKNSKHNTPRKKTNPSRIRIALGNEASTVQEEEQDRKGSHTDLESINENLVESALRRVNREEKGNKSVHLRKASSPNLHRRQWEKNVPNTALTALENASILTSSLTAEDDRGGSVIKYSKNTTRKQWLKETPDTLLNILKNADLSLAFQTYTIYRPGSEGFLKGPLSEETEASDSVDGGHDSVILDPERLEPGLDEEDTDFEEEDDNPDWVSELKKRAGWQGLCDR
# [4] = target: IRAK1 (Homo sapiens, UniProt P51617); experiment: biochemical; parameters: endogenous in cells; host or cells: K562 cell extract; species or system K562 (extract); replicate k of n = 2 (each experiment ID is one independent experiment; two experiment IDs per compound); settings: read-out: KDapp
# Chain of IRAK1 (P51617 whole entry): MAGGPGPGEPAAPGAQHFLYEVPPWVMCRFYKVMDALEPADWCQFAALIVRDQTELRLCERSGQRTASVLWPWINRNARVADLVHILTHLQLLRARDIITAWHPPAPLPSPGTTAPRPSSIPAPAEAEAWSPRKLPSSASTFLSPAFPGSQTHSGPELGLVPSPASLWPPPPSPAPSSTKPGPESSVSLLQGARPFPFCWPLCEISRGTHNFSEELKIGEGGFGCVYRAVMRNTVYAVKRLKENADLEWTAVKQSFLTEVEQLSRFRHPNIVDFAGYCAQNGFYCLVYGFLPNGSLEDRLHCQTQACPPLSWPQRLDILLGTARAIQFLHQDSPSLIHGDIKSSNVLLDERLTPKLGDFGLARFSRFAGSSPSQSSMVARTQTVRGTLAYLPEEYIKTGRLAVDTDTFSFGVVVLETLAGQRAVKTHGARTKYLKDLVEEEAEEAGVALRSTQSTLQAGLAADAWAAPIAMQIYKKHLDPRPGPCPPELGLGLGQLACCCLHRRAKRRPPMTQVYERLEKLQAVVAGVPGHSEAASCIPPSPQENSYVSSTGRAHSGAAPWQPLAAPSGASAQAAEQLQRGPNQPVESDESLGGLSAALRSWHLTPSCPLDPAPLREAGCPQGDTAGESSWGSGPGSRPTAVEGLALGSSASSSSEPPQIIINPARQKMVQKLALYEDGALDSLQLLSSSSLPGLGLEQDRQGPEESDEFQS
# [5] = target: PRKCA (Homo sapiens, UniProt P17252); experiment: biochemical; parameters: endogenous in cells; host or cells: K562 cell extract; species or system K562 (extract); replicate k of n = 2 (each experiment ID is one independent experiment; two experiment IDs per compound); settings: read-out: KDapp
# [6] = AAK1, K-562 extract, conc. series 20.0-0.0uM, channel assignment not given
# Chain of AAK1 (Q2M2I8 whole entry): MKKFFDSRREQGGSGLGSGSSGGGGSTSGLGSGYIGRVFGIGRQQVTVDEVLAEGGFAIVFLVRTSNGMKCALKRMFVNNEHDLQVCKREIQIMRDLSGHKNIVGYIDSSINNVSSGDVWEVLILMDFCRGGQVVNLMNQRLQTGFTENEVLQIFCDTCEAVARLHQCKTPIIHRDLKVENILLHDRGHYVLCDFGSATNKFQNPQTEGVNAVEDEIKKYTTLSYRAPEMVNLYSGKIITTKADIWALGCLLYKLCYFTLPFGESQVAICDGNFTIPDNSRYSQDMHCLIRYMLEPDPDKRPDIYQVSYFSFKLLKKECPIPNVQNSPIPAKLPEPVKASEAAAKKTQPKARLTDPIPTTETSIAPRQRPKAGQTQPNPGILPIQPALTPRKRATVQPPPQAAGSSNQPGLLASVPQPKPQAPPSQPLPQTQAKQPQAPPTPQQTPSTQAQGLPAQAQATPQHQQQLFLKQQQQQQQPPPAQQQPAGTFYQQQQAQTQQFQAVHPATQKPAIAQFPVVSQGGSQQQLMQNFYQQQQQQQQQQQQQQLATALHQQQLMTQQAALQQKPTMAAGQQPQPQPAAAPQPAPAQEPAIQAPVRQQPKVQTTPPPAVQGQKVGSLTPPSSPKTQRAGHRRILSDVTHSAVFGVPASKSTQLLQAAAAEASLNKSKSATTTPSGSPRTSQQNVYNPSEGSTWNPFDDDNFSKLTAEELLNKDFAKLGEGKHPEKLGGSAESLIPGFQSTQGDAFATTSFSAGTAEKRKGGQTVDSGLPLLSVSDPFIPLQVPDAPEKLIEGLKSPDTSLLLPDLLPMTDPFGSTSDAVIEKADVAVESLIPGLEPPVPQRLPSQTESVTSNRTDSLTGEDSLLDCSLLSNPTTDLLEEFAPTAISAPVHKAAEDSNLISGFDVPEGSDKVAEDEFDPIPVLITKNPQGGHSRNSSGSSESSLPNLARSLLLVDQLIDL
Structure (SMILES),IC50 [1],"abundance relative to vehicle TMT126 ([1]; AAK1, K-562 extract, conc. series 20.0, 4.0, 0.8, 0.16, 0.032, 0.0uM, channel assignment not given)","abundance relative to vehicle TMT127L [1, 6]","abundance relative to vehicle TMT128H [1, 6]","abundance relative to vehicle TMT129L [1, 6]","abundance relative to vehicle TMT130H [1, 6]","Hill ([1]; AAK1, kinobead competition curve)",Kd [2],Kd [3],Kd [4],Kd [5]
Cl.NCC1(c2nc(-c3ccc(Cl)c(O)c3)c(-c3ccncc3)[nH]2)CCCCC1 [TCMDC-141154],> 20 µM,0.86,0.83,0.89,1.02,1.01,0.56,,,,
CN1CCN(c2ccc(Nc3ncc(C#N)c(Nc4ccccc4C(N)=O)n3)cc2)CC1.Cl [TCMDC-134116],,,,,,,,0.274 µM,0.717 µM,0.0929 µM and 0.0813 µM,0.393 µM
